# Assay results reported in PubChem BioAssay (NCI).
#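 A five-concentration, 48-hour dose response in 96-well plates underlies each endpoint, interpolated linearly between surrounding concentrations. Abbreviation: GI50, concentration required for 50% inhibition of growth. TGI denotes the concentration required for complete inhibition of growth.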
# Legend:
# Assay in all cases: inhibition of tumour cell growth, NCI panel, 48 h
# [1] = tested on: 786-0 renal
# [2] = tested on: A498 renal
# [3] = tested on: A549 NSCLC
# [4] = tested on: ACHN renal
# [5] = tested on: BT-549 breast
# [6] = tested on: CAKI-1 renal
# [7] = tested on: CCRF-CEM leukemia
# [8] = tested on: COLO 205 colon
# [9] = tested on: DU-145 prostate
# [10] = tested on: HCC-2998 colon
# [11] = tested on: HCT-15 colon
# [12] = tested on: HL-60(TB) leukemia
# [13] = tested on: HOP-62 NSCLC
# [14] = tested on: HS 578T breast
# [15] = tested on: HT29 colon
# [16] = tested on: IGROV1 ovarian
# [17] = tested on: KM12 colon
# [18] = tested on: M14 melanoma
# [19] = tested on: MALME-3M melanoma
# [20] = tested on: MCF7 breast
# [21] = tested on: MDA-MB-231 breast
# [22] = tested on: MDA-MB-435
# [23] = tested on: MOLT-4 leukemia
# [24] = tested on: NCI-H226 lung
# [25] = tested on: NCI-H23 lung
# [26] = tested on: NCI-H460 lung
# [27] = tested on: NCI-H522 lung
# [28] = tested on: NCI/ADR-RES ovarian
# [29] = tested on: OVCAR-3 ovarian
# [30] = tested on: OVCAR-4 ovarian
# [31] = tested on: OVCAR-5 ovarian
# [32] = tested on: OVCAR-8 ovarian
# [33] = tested on: PC-3 prostate
# [34] = tested on: RPMI-8226 leukemia
# [35] = tested on: RXF 393 renal
# [36] = tested on: SF-268 CNS
# [37] = tested on: SF-295 CNS
# [38] = tested on: SF-539 CNS
# [39] = tested on: SK-MEL-28 melanoma
# [40] = tested on: SK-MEL-5 melanoma
# [41] = tested on: SK-OV-3 ovarian
# [42] = tested on: SN12C renal
# [43] = tested on: SNB-19 CNS
# [44] = tested on: SNB-75 CNS
# [45] = tested on: SR leukemia
# [46] = tested on: SW-620 colon
# [47] = tested on: T-47D breast
# [48] = tested on: TK-10 renal
# [49] = tested on: U251 CNS
# [50] = tested on: UACC-257 melanoma
# [51] = tested on: UACC-62 melanoma
# [52] = tested on: UO-31 renal
smiles,measurement,setting,value
O=C(/C=C/c1ccc(Cl)cc1)/C=C/c1cc2ccccc2[nH]c1=O,GI50,[1],2.02 µM
same,TGI,[1],4.16 µM
same,GI50,[2],5.87 µM
same,TGI,[2],18.8 µM
same,GI50,[3],3.16 µM
same,TGI,[3],48.9 µM
same,GI50,[4],4.96 µM
same,TGI,[4],20.3 µM
same,GI50,[5],3.29 µM
same,TGI,[5],11.7 µM
same,GI50,[6],4.38 µM
same,TGI,[6],21.8 µM
same,GI50,[7],3.09 µM
same,TGI,[7],9.74 µM
same,GI50,[8],3.65 µM
same,TGI,[8],11.7 µM
same,GI50,[9],3.52 µM
same,TGI,[9],11.7 µM
same,GI50,[10],2.02 µM
same,TGI,[10],3.62 µM
same,GI50,[11],2.85 µM
same,TGI,[11],14.6 µM
same,GI50,[12],2.83 µM
same,TGI,[12],8.39 µM
same,GI50,[13],8.21 µM
same,TGI,[13],26 µM
same,GI50,[14],4.14 µM
same,TGI,[14],66.6 µM
same,GI50,[15],2.5 µM
same,TGI,[15],6.33 µM
same,GI50,[16],2.34 µM
same,TGI,[16],5.5 µM
same,GI50,[17],3.11 µM
same,TGI,[17],10.3 µM
same,GI50,[18],3.11 µM
same,TGI,[18],13.4 µM
same,GI50,[19],7.63 µM
same,TGI,[19],38.4 µM
same,GI50,[20],0.923 µM
same,TGI,[20],8.45 µM
same,GI50,[21],2.64 µM
same,TGI,[21],7.82 µM
same,GI50,[22],2.34 µM
same,TGI,[22],5.63 µM
same,GI50,[23],3.82 µM
same,TGI,[23],13.8 µM
same,GI50,[24],2.59 µM
same,TGI,[24],11.4 µM
same,GI50,[25],4.76 µM
same,TGI,[25],23.5 µM
same,GI50,[26],8.52 µM
same,TGI,[26],28.9 µM
same,GI50,[27],1.91 µM
same,TGI,[27],5.4 µM
same,GI50,[28],16.8 µM
same,TGI,[28],> 100 µM
same,GI50,[29],2.07 µM
same,TGI,[29],4.5 µM
same,GI50,[30],5.06 µM
same,TGI,[30],74.3 µM
same,GI50,[31],4.65 µM
same,TGI,[31],19.6 µM
same,GI50,[32],3.03 µM
same,TGI,[32],12.9 µM
same,GI50,[33],2.91 µM
same,TGI,[33],13.7 µM
same,GI50,[34],1.29 µM
same,TGI,[34],4.65 µM
same,GI50,[35],2.81 µM
same,TGI,[35],8.88 µM
same,GI50,[36],3.61 µM
same,TGI,[36],16 µM
same,GI50,[37],3.48 µM
same,TGI,[37],13.2 µM
same,GI50,[38],2.88 µM
same,TGI,[38],9.37 µM
same,GI50,[39],10 µM
same,TGI,[39],26.2 µM
same,GI50,[40],10.1 µM
same,TGI,[40],25.2 µM
same,GI50,[41],12.2 µM
same,TGI,[41],32.7 µM
same,GI50,[42],3.67 µM
same,TGI,[42],17.4 µM
same,GI50,[43],11.3 µM
same,TGI,[43],24.7 µM
same,GI50,[44],5.79 µM
same,TGI,[44],24.7 µM
same,GI50,[45],2.42 µM
same,TGI,[45],8.19 µM
same,GI50,[46],2.31 µM
same,TGI,[46],5.82 µM
same,GI50,[47],3.46 µM
same,TGI,[47],22.7 µM
same,GI50,[48],12.3 µM
same,TGI,[48],31.8 µM
same,GI50,[49],1.81 µM
same,TGI,[49],3.68 µM
same,GI50,[50],5.2 µM
same,TGI,[50],19.6 µM
same,GI50,[51],2.8 µM
same,TGI,[51],10.5 µM
same,GI50,[52],4.28 µM
same,TGI,[52],20 µM
